These results are taken from patent US20220213070A1, “COMPOUNDS INHIBITING TDG ACTIVITY” (EPITAS BIOSCIENCES (SHANGHAI) CO., LTD., priority 2019, published 2022).

The target of test [1] is T1, TDG (Homo sapiens, UniProt Q13569). In words: Inhibition of TDG mismatch repair activity (fluorescent G·U double-stranded DNA probe T1-T2). The note with it: TDG 100 nM/L, preincubated with compound 37° C. 30 minutes; probe 30 nM; read-out: Inhibitory activity on TDG mismatch repair IC50. The class given is biochemical. The text has this: 14.1 Experimental Determination of Compound's Inhibitory Rate on TDG Mismatch Repair Activity
(1) A double-stranded DNA probe T1-T2 containing uracil bases was synthesized. The nucleotide sequence of the T1 chain was: 5′-FAM-TAAUGTGAATGGAGCTGAAAT-biotin-3′; The nucleotide sequence of the T2 chain was 5′-ATTTCAGCTCCATTCACGTTA-3′. Using PCR annealing program, the T1 strand and T2 strand were complementary to form a double-stranded DNA probe T1-T2.
(2) The reaction system and steps for each well of a 96-well plate were as follows: a. TDG (100 nM/L) was mixed with different concentrations of compounds, and the mixture was incubated at 37° C. for 30 minutes. The composition of the reaction buffer was: 20 mM HEPES pH7.5, 100 mM NaCl, 0.2 mM EDTA, 2.5 mM MgCl2; b. The double-stranded DNA probe T1-T2 was added to the mixture to obtain a final volume of 100 μL, with a concentration of 30 nM, and the mixture was incubated at 25° C. for 30 min; c. 1 μL of streptavidin magnetic beads were added to the reaction solution and fully bound the biotin-labeled DNA for 1 hour; d. NaOH was added to the reaction solution to a final concentration of 200 mM, and the mixture was incubated at room temperature for 30 minutes; e. Under the action of a magnetic stand the streptavidin magnetic beads were adsorbed to the tube wall, the supernatant was transferred to a new 96-well plate, and placed in a Tecan microplate reader for fluorescence measurement. The parameter settings were: excitation wavelength 485 nm; emission wavelength 520 nm. A linear curve between fluorescence intensity and TDG concentration was constructed, R^2=0.9968, and the linear range was 0-50 nM/L;
According to the biological method described in this example, the selected compounds of the present invention were analyzed, and the results are shown in Table 1. Among them, “++” in Table 1 refers to the inhibitory activity for TDG mismatch repair with IC50≤5 μM; “+” refers to the inhibitory activity for TDG mismatch repair with IC50>5 μM.

The test system of test [2] is Lung cancer cell line Calu-1. The test can be described thus: Inhibition of the growth of Calu-1 cells (CellTiter-Glo, 72 hours). Type of test: cell-based. The note with it: Homo sapiens, 72 hours of culturing, read-out: Inhibitory activity on alu-1 cell growth IC50. On the procedure: 14.2 Experimental Determination of Compound's Inhibitory Rate on the Growth of Calu-1 Cells
Lung cancer cell line Calu-1 was cultured in 90% McCoy's 5A medium (BI, 01-075-1ACS)+10% fetal bovine serum (Gibco, 10270106), placed in a CO2 incubator (37° C., 5% CO2, 95% air) for culturing. Calu-1 cells were digested with trypsin (Gibco, 12604-021) and seeded in a 384-well plate at a density of 500 cells per well. The medium was 50 μL and it was cultured overnight at 37° C. in an incubator. On the next day, different concentrations of test compounds were added, and the final concentration of DMSO was 0.1%. After 72 hours of culturing, the cells were taken out for test. The cell culture medium from the 384-well plate to be tested was removed, and fresh culture medium premixed with CTG was immediately added: the ratio of the culture medium to CellTiter-Glo® 2.0 reagent (Promega, G9243) was 2:1, 30 ul was added to each well. The plate was shaken at room temperature for 20 minutes, and then a multi-function plate reader (TECAN, Infinite 200 Pro) was used according to the reagent instructions to determine the cell survival.
According to the biological method described in this example, the selected compounds of the present invention were analyzed, and the results are shown in Table 1. Among them, “++” in Table 1 refers to the inhibitory activity on the growth of calu-1 cells with IC50≤5 μM; “+” refers to the inhibitory activity on the growth of calu-1 cells with IC50>5 μM.
In general terms: In ATP-based viability assays light output follows the ATP content of the culture.

The target in test [3] is T1, TDG. In words: TDG inhibitory activity of compounds in cells (caC-cmv-firefly luciferase reporter, HEK 293T TDG KO cells transfected with pCDNA4-TDG). The conditions noted are these: read-out: Inhibition rate on TDG activity. Type of test: cell-based. On the procedure:
Experimental Determination of TDG Inhibitory Activity of Compounds in Cells
The operation steps of this example are as follows:
(1) Preparation of Methylation Reporter Plasmid:
(a) SAM with a stock solution concentration of 32 mM was diluted with ultrapure water to 1600 μM;
(b) The reaction system was prepared according to the following ratio: 30 μl ultrapure water, 5 μl 10×NEBuffer 2, 5 μl diluted SAM, 1 μg pCpGL-CMV-firefly plasmid, 1 μl SssI methylase (4 U/μl); 50 μl in total, the reaction was carried out at 37° C. for 2 hours;
(c) The mixture was heated at 65° C. for 20 minutes. Then 0.2% SDS was added, the reaction was carried out at 80° C. for 10 min; and then 1 μl Proteinase K was added, the reaction was carried out at 50° C. for 1 h;
(d) The methylated plasmid was recovered with Dr. GenTLE® sedimentation aid (TAKARA).
(2) Preparation of 5fC/5caC pCpGL-CMV-Firefly Reporter Plasmid
(a) The following 10× reaction system was prepared:
(b) The reaction system was prepared according to the following ratio:
(c) The reaction was carried out at 37° C. for one hour;
(d) 24 μg Tet1 protein was added for the second time and the reaction was continued for one hour;
(e) SDS was added to a final concentration of 0.5%, 80° C., 10 minutes, then 1 μl Proteinase K was added, 55° C. overnight.
(f) The treated caC-cmv-firefly plasmid was recovered with Dr. GenTLE® sedimentation aid (TAKARA) and was quantified.
(3) Using the Luciferase Activity Assay Method to Detect the Inhibitory Rate of Small Molecule Compounds on Intracellular TDG Enzyme Activity
In a 96-well plate, the reaction system and operation flow of each well were as follows:
(a) 1 ng caC-cmv-firefly, Ing pCpGL-CMV-Relina and 150 ng pCDNA4-TDG or 150 ng pCDNA4-myc plasmid, were diluted to 75 ul Opti-MEM, mixed well and allowed to stand still for 5 minutes;
(b) 2 ul transfection reagent (Hieff Trans™ Liposomal transfection Reagent (0.5 ul/well, YEAEEN, Cat #40802)) was diluted in 100 ul Opti-MEM, mixed well and allowed to stand still for 5 minutes;
(c) 75 ul of (a) and (b) were mixed respectively, and allowed to stand still at room temperature for 20 minutes;
(d) HEK 293T TDG KO cells were digested with trypsin, the cells were collected and counted, and the suspension cell concentration was adjusted to 4×10^5/ml;
(e) 50 ul of the mixture (c) was added to each well, and at the same time 100 ul of the diluted cell suspension was added to the same well, and they were mixed well.
(f) After the cells adhering to the wall, different concentrations of small molecule compounds to be tested were added to each well.
(g) Incubation was performed in a 37° C. CO2 incubator for 72 hours. The supernatant was removed and the cells were quickly freezed at −80° C.
(h) Before detecting the luciferase activity, the cells to be tested were removed from −80° C. and allowed to stand still at room temperature for 30 minutes. Following the instructions of Dual-Glo® Luciferase Reagent (PROMEGA), the firefly fluorescence value and Renilla fluorescence value of each well were detected.
(i) The firefly fluorescence value was divided with the Renilla fluorescence value of each well; 96-well plate Z′ and experimental window was calculated by the ratio of transfected caC-cmv-firefly, pCpGL-CMV-Relina, pCDNA4-TDG plasmid mixture plus DMSO experimental group to transfected caC-cmv-firefly, pCpGL-CMV-Relina, pCDNA4-myc plasmid mixture plus DMSO experimental group, and the relative enzyme activity inhibition rate of each compound was calculated.
According to the biological method described in this example, the selected compounds of the present invention were analyzed, and the results are shown in Table 2. Among them, “+” in Table 2 refers to the compound's TDG inhibitory activity at a concentration of 10 μM≤25%; “++” refers to the compound's TDG inhibitory activity at a concentration of 10 μM>25%.

T1 sequence (Q13569 whole entry): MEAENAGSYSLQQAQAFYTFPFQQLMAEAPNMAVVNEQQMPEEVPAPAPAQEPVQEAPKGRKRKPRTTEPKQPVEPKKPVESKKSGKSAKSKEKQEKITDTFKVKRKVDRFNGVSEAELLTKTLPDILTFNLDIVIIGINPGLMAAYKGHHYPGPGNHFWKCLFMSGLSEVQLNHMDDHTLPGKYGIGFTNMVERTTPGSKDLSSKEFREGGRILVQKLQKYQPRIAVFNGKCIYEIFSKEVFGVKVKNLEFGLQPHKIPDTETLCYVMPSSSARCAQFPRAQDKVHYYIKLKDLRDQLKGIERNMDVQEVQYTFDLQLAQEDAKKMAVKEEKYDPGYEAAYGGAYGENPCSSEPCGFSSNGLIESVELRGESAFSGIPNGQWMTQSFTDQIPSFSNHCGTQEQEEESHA

One may read the IC50 as the midpoint of a concentration-inhibition curve. One may read the inhibition as how much of the control response was suppressed. For `O=C(CCN1Cc2ccc(Br)cc2C1)c1ccc2c(c1)OCCO2` [Compound 3, 3-(5-bromoisoindolin-2-yl)-1-(2,3-dihydrobenzo[b][1,4]dioxin-6-yl)propan-1-one], the IC50 was not above 5 µM on TDG [1] and more than 5 µM in test [2]. Moreover, at TDG [3], the inhibition at 10 µM is less than 25%.
On the same counts, the results for `O=C(CCNc1ccc2cnccc2c1)c1ccc2c(c1)OCCO2` [Compound 20, 1-(2,3-dihydrobenzo[b][1,4]dioxin-6-yl)-3-(isoquinolin-6-ylamino)propan-1-one] are more than 5 µM, more than 5 µM and less than 25%.
On the same counts, the results for `O=C(CCN1CCCc2ccccc21)c1ccc2c(c1)OCCO2` [Compound 14, 1-(2,3-dihydrobenzo[b][1,4]dioxin-6-yl)-3-(3,4-dihydrouinoline-1(2H)-yl)propan-1-one] are more than 5 µM, more than 5 µM and less than 25%.
On the same counts, the results for `OC(CCN1Cc2ccccc2C1)c1ccc2c(c1)OCCO2` (stereo not drawn) [Compound 10, 1-(2,3-dihydrobenzo[b][1,4]dioxin-6-yl)-3-(isoindolin-2-yl)propan-1-ol] are more than 5 µM, more than 5 µM and less than 25%.
As for `O=C(CCN1Cc2ccccc2C1)c1ccc2c(c1)OCCO2` [Compound 1, 1-(2,3-dihydrobenzo[b][1,4]dioxin-6-yl)-3-(isoindolin-2-yl)propan-1-one], the IC50 (at TDG [1]; in test [2]) was not above 5 µM throughout. In addition, the inhibition at 10 µM at TDG [3] was more than 25%.
As to `O=C(CCn1ncc2ccncc21)c1ccc2c(c1)OCCO2` [Compound 25, 1-(2,3-dihydrobenzo[b][1,4]dioxin-6-yl)-3-(1H-pyrazolo[3,4-c]pyridine-1-yl)propan-1-one], the IC50 (on TDG [1]; in test [2]) was more than 5 µM in each case. Moreover, the inhibition at 10 µM on TDG [3] is less than 25%.
As for `COc1ccc2cn(CCC(=O)c3ccc4c(c3)OCCO4)nc2c1` [Compound 24, 1-(2,3-dihydrobenzo[b][1,4]dioxin-6-yl)-3-(6-methoxy-2H-indazol-2-yl)propan-1-one], the IC50 (on TDG [1]; in test [2]) was more than 5 µM each time. Besides, the inhibition at 10 µM on TDG [3] was less than 25%.
Regarding `O=C(CCN1Cc2ccc(-c3ccc(F)cc3)cc2C1)c1ccc2c(c1)OCCO2` [Compound 40, 1-(2,3-dihydrobenzo[b][1,4]dioxin-6-yl)-3-(5-(4-fluorophenyl)isoindolin-2-yl)propan-1-one], the half-inhibitory concentration (IC50) (at TDG [1]; in test [2]) was more than 5 µM each time. For the same compound, the inhibition at 10 µM on TDG [3] is less than 25%.
`C=CC(=O)c1ccc2c(c1)OCCO2` [Compound 42, 1-(2,3-dihydrobenzo[b][1,4]dioxin-6-yl)prop-2-en-1-one]: the half-inhibitory concentration (IC50) (at TDG [1]; in test [2]) was not above 5 µM in each case. The inhibition at 10 µM on TDG [3] was less than 25%.
On to `O=C(CCN1CCc2ccccc2C(O)(c2ccc(F)cc2)C1)c1ccc2c(c1)OCCO2` (stereo not drawn) [Compound 53, 1-(2,3-dihydrobenzo[b][1,4]dioxin-6-yl)-3-(1-(4-fluorophenyl)-1-hydroxy-1,2,4,5-tetrahydro-3H-benzo[d]azepine-3-yl)propan-1-one], for which the IC50 (on TDG [1]; in test [2]) was not above 5 µM in each case. On TDG [3], the inhibition at 10 µM is less than 25%.
In the case of `O=C(CCN1CCc2ccccc2C1)c1ccc2c(c1)OCCO2` [Compound 13, 1-(2,3-dihydrobenzo[b][1,4]dioxin-6-yl)-3-(3,4-dihydroisoquinoline-2(1H)-yl)propan-1-one], the IC50 (at TDG [1]; in test [2]) was not above 5 µM throughout. In addition, the inhibition at 10 µM at TDG [3] is less than 25%.
For the compound `O=C(c1ccc2c(c1)OCCO2)N1Cc2ccccc2C1` [Compound 33, (2,3-dihydrobenzo[b][1,4]dioxin-6-yl)(isoindolin-2-yl)methanone], the concentration for half-maximal inhibition (IC50) (at TDG [1]; in test [2]) was more than 5 µM in each case. The inhibition at 10 µM at TDG [3] was less than 25%.
For `O=C(CCN1CCC(O)(c2ccc(F)cc2)C1)c1ccc2c(c1)OCCO2` (stereo not drawn) [Compound 43, 1-(2,3-dihydrobenzo[b][1,4]dioxin-6-yl)-3-(3-(4-fluorophenyl)-3-hydroxypyrrolidine-1-yl)propan-1-one], the IC50 (at TDG [1]; in test [2]) was not above 5 µM throughout. For the same compound, the inhibition at 10 µM on TDG [3] is less than 25%.
With `O=C(CCNC1=NCc2ccccc21)c1ccc2c(c1)OCCO2` [Compound 26, 3-((1H-isoindo1-3-yl)amino)-1-(2,3-dihydrobenzo[b][1,4]dioxin-6-yl)propan-1-one], the IC50 (at TDG [1]; in test [2]) was more than 5 µM throughout. Further, on TDG [3], the inhibition at 10 µM was less than 25%.
As for `O=C(CCN1CCC(=O)c2ccccc21)c1ccc2c(c1)OCCO2` [Compound 27, 1-(3-(2,3-dihydrobenzo[b][1,4]dioxin-6-yl)-3-oxopropyl)-2,3-dihydroquinoline-4(1H)-one], the IC50 (at TDG [1]; in test [2]) was more than 5 µM each time. Further, the inhibition at 10 µM on TDG [3] was less than 25%.
